Consider two compounds from patent US10314819B2, “Solid state forms of Eluxadoline” (TEVA PHARMACEUTICALS INTERNATIONAL GMBH, priority 2015, dated 2019).

Holding throughout (type): physicochemical
Data set [1] can be described thus: Texture analysis / density at 0.2 MPa. To be noted: 200 mg sample compressed in steel mould. The protocol:
A simple and low sample consuming method for evaluation of the packing density of powders were obtained as compression profiles under low pressures using a die and a flat-faced punch fitted on a TA-XTplus Texture analyser (Stable Micro Systems Ltd., Godalming, UK). The small amount of 200 mg of sample is compressed in a steel mould (with the rate of displacement 0.03 mm/s). Also, a cyclic procedure (similar to tapping) was performed at maximal compressive displacement 0.5 mm, then retracting, relaxation for 15 s and then repeated compressive steps (altogether up to 20 steps).

A short description of data set [2]: % weight loss / water content (TGA, KF) after storage at various relative humidity. The settings on record: for % weight loss/water cont. - after 21 days, TGA: TGA up to 121° C. The protocol: (§1) The obtained amorphous form was stored at various conditions, and the PXRD was analyzed after 3 and 7 days:
(§2) The obtained form alpha was stored at various conditions, and the PXRD was analyzed after 3 and 8 days:
(§3) The obtained amorphous form was stored at various conditions of relative humidity, and the PXRD was obtained after 1M (Table 4):
(§4) The obtained amorphous form was stored at various conditions, and the PXRD was obtained after 2M (Table 5):
(§5) XRPD pattern is shown in FIG. 16; SEM image is shown in FIG. 17; DSC thermogram is shown in FIG. 21 and TGA thermogram is shown in FIG. 22. The obtained form alpha was stored at various conditions, and the PXRD was obtained after 8, 14, and 21 days (Table 6): […]

The nature of data set [3]: Polymorph stability on storage at various relative humidity (PXRD). The protocol:
Sample after being powdered in a mortar and pestle is applied directly on a silicon plate holder. The X-ray powder diffraction pattern was measured with Philips X'Pert PRO X-ray powder diffractometer, equipped with Cu irradiation source=1.54184 Å(Ångström), X'Celerator (2.022° 2θ) detector. Scanning parameters: angle range: 3-40 deg., step size 0.0167, time per step 37 s, continuous scan.
as §1
The obtained pure amorphous form was stored at various conditions, and the PXRD was analyzed after 3 and 7 days:
as §2, §3, §4, §5

Data set [4] is described as follows: Bulk density/tapped density, Hausner ratio and Carr index (Ph. Eur. 2.9.34. Method 1). To be noted: PSD/μm 3/8/24. As for the experimental part:
Bulk density/tapped density and corresponding Hausner ratio and Carr index were determined according to Ph. Eur. 2.9.34. Method 1.

A short description of data set [5]: Dissolution in 50 mM phosphate buffer pH = 7.4 at 37° C. The settings on record: 50 mM phosphate buffer pH = 7.4, 37° C. The protocol:
Samples were prepared and analysed in duplicate. About 20 mg of each sample were weighed into 500 ml Erlenmeyer flask, 200 ml of 50 mM phosphate buffer pH=7.4, previously heated to 37° C. were added and flasks were shaken at 110 rpm for 60 minutes at 37±0.2° C. in an incubator shaker. 3 ml aliquots were taken at 5, 10, 20, 30, 45 and 60 min, filtered through 0.45 μm Chromafil Xtra RC 45/25 syringe filter and analysed by UV/VIS spectrometer (absorbance at 203 nm).
The measurement was performed using the following instruments: • pH/Ion meter PHM 240, MeterLab, Radiometer Analytical • Incubator shaker Innova 4080, New Brunswick Scientific, 19 mm diameter circular orbit • UV/VIS spectrometer Varian Cary 50 Bio, 1 mm quartz cell Results of Eluxadoline samples dissolution in 50 mM phosphate buffer pH=7.4 are summarized in Table 8 below: […]

Data set [6] is described as follows: Specific surface area (SSA), BET nitrogen. As for the experimental part: Specific Surface Area (SSA) measurements (Bet Nitrogen) were determined using a Micromeritics ASAP 2000, specific surface area analyzer. Samples were subjected to the BET nitrogen adsorption analysis to determine the specific surface of the samples.
Sample tube: 10 cc bulb with ½″ stem
Sample mass: Approximately ½ full cell
Sample preparation: Degassing with nitrogen
Outgassing conditions: 40° C. (30 min)
Isothermal collection point: 20 adsorption points, in the range 0-1 P/P0
Isothermal data analysis range: 5 point BET in the range 0.05-0.20 P/P0
Equilibration interval: 5 s
Equilibration time out: 600 s

Regarding `COc1ccc(CN(C(=O)[C@@H](N)Cc2c(C)cc(C(N)=O)cc2C)[C@@H](C)c2nc(-c3ccccc3)c[nH]2)cc1C(=O)O` [Eluxadoline alpha-lower particle size, Eluxadoline], the “Density at 0.2 MPa” value in data set [1] was 0.5190 mg/mm^3.

`COc1ccc(CN(C(=O)[C@@H](N)Cc2c(C)cc(C(N)=O)cc2C)[C@@H](C)c2nc(-c3ccccc3)c[nH]2)cc1C(=O)O` [Example 22]: the “% weight loss/water cont. - after 21 days, TGA” value in data set [2] (0% RH, 21 days) is “TGA-0.96%”; in data set [2] (20% RH, 21 days), “TGA-1.26%”; in data set [2] (40% RH, 21 days) it was “TGA-1.46%”; in data set [2] (60% RH, 21 days), “TGA-6.30%”; in data set [2] (80% RH, 21 days) it was “TGA-7.00%”; in data set [2] (100% RH, 21 days), “TGA-9.01%”. Also, in data set [2] (As is), the “% weight loss/water cont. - after 21 days, TGA” value was 0.95%. For the same compound, the “% weight loss/water cont. - after 21 days, KF” value in data set [2] (As is) was 1.12%. For the same compound, the “PXRD results - after 21 days” value in data set [3] (0% RH, 21 days) was “alpha”; in data set [3] (20% RH, 21 days), “alpha”; in data set [3] (40% RH, 21 days), “alpha”; in data set [3] (60% RH, 21 days), “alpha”; in data set [3] (80% RH, 21 days), “alpha”; in data set [3] (100% RH, 21 days), “alpha”. Besides, in data set [3] (As is), the “PXRD results - after 21 days” value was “alpha”. In addition, the Bulk density in data set [4] is 0.33 mg/mm^3. Moreover, in data set [4], the “Carr's index” value came to 14.93%. In addition, the “Flow character (Carr's index)” value in data set [4] is recorded as “good”. For the same compound, in data set [4], the Hausner ratio was found to be 1.18. Moreover, in data set [4], the Tapped density stood at 0.39 mg/mm^3. Further, the “% dissolved” value in data set [5] (5 min) is 83.62%; in data set [5] (10 min) it was 91.02%; in data set [5] (20 min), 95.48%; in data set [5] (30 min) it was 95.87%; in data set [5] (45 min) it was 96.56%; in data set [5] (60 min), 96.64%. Moreover, in data set [1], the “Density at 0.2 MPa” value is 0.4707 mg/mm^3. The compound also came in with an SSA in data set [6] of 9.63 m^2/g.
